Data from patent publication US11046728B2, “Neuroactive steroids, compositions, and uses thereof” (Sage Therapeutics, Inc., priority 2013, dated 2021).
pIC50: −log10 of the molar value.

Key:
male beagle dogs = test: Duration of lateral recumbence in dogs; format: in vivo, dog; conditions: intravenous bolus, administered at 5 mg/kg
Method: The plasma pharmacokinetics and a qualitative assessment of sedation were obtained in male beagle dogs according to the following procedure. Dogs were dosed by intravenous bolus dose (60 seconds) via the cephalic vein at doses ranging from 2 to 5 mg/kg in an appropriate vehicle. In order to assess sedation, dogs were gently restrained for dose administration. If decreased muscle tone, limb weakness, or head drop was observed during dose administration, onset of lateral recumbence was recorded. […] Sluggish or incomplete righting to the sternal position qualifies as lateral recumbence. After onset of lateral recumbence, animals were assessed every 5 minutes in the same manner. The duration of lateral recumbence was recorded as the time interval between onset of lateral recumbence and the return to sternal position.

GABA receptor α1β2γ2 = molecular target: T1, GABA receptor α1β2γ2 (Homo sapiens, UniProt P14867+P47870); test: Patch clamp electrophysiology, Qpatch in Ltk cells; format: cell-based; conditions: 10 μM test article, GABA EC20 = 2 μM, read-out: GABA (α1β2γ2) Qpatch in Ltk, % efficacy at 10 μM
T1 construct: expressed in transfected cells; host or cells: LTK cells, stably transfected
T1 sequence (P14867 28-456): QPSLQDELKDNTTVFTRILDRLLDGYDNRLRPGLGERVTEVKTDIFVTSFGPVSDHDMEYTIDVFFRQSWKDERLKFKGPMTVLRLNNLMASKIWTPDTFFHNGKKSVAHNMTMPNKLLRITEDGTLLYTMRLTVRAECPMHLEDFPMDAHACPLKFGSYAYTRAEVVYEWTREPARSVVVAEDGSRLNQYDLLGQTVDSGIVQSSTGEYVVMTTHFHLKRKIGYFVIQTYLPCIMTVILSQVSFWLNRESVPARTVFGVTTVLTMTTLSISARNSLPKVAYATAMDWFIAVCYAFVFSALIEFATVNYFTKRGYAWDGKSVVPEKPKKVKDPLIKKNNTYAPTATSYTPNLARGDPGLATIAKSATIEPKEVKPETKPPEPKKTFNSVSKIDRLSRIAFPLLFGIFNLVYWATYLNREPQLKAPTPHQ
T1 sequence (P47870 25-512 limits assumed): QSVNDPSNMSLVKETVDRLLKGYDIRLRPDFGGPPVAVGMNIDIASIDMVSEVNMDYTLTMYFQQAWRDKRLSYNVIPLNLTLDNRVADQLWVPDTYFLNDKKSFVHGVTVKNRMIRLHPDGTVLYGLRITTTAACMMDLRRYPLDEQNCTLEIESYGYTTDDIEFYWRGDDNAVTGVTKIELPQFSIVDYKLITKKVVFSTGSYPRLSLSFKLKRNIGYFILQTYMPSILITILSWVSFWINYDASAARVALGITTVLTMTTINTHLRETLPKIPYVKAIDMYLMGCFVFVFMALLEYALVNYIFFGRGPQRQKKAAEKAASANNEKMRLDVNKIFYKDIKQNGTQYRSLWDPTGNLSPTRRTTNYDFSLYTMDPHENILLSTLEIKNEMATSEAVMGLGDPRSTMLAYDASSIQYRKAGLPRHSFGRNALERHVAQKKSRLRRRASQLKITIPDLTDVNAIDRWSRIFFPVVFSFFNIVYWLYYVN
T1 sequence (P18507 40-475 partner): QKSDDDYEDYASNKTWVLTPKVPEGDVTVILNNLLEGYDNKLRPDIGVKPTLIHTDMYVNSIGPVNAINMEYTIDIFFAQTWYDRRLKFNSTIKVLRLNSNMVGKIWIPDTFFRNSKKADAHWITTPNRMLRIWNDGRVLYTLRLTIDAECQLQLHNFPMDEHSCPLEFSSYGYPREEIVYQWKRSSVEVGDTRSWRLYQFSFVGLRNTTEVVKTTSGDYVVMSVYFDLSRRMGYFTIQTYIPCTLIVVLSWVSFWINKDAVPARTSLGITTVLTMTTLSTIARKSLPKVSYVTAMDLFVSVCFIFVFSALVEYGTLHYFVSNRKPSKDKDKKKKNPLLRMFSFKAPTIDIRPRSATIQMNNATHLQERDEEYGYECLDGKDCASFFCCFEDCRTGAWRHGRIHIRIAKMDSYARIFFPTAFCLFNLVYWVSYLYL

[1] = molecular target: TBPS binding, rat brain cortical membranes in the presence of 5 μM GABA; test: 35S-TBPS displacement (steroid inhibition of TBPS binding); conditions: read-out: 35S-TBPS Radioligand Displacement (IC50)
Method: TBPS binding assays using rat brain cortical membranes in the presence of 5 μM GABA has been described (Gee et al, J. Pharmacol. Exp. Then 1987, 241, 346-353; Hawkinson et al, Mol. Pharmacol. 1994, 46, 977-985). Briefly, cortices are rapidly removed following decapitation of carbon dioxide-anesthetized Sprague-Dawley rats (200-250 g). The cortices are homogenized in 10 volumes of ice-cold 0.32 M sucrose using a glass/teflon homogenizer and centrifuged at 1500×g for 10 min at 4° C. The resultant supernatants are centrifuged at 10,000×g for 20 min at 4° C. to obtain the P2 pellets. The P2 pellets are resuspended in 200 mM NaCl/50 mM Na—K phosphate pH 7.4 buffer and centrifuged at 10,000×g for 10 min at 4° C. This washing procedure is repeated twice and the pellets are resuspended in 10 volumes of buffer. Aliquots (100 μL) of the membrane suspensions are incubated with 3 nM [^35S]-TBPS and 5 μL, aliquots of test drug dissolved in dimethyl sulfoxide (DMSO) (final 0.5%) in the presence of 5 μM GABA. The incubation is brought to a final volume of 1.0 mL with buffer. Nonspecific binding is determined in the presence of 2 μM unlabeled TBPS and ranged from 15 to 25%. Following a 90 min incubation at room temp, the assays are terminated by filtration through glass fiber filters (Schleicher and Schuell No. 32) using a cell harvester (Braudel) and rinsed three times with ice-cold buffer. Filter bound radioactivity is measured by liquid scintillation spectrometry. Non-linear curve fitting of the overall data for each drug averaged for each concentration is done using Prism (GraphPad). […] The concentration of test compound producing 50% inhibition (IC50) of specific binding and the maximal extent of inhibition (Imax) are determined for the individual experiments with the same model used for the overall data and then the means±SEMs of the individual experiments are calculated.
Various compounds are or can be screened to determine their potential as modulators of ^35S-TBPS binding in vitro. These assays are or can be performed in accordance with the above discussed procedures.

male Sprague Dawley rats = test: Loss of righting reflex in rats; format: in vivo, rat; conditions: intravenous bolus 5 mg/kg
Method: The plasma pharmacokinetics and a qualitative assessment of sedation were obtained in male Sprague Dawley rats according to the following procedure. Rats were dosed by intravenous bolus dose (60 seconds) via the foot dorsal vein at 5 mg/kg in an appropriate vehicle. In order to assess sedation, rats were gently restrained by hand to a lateral position for dose administration. […] If the animal was unable to return to an upright position, the time was recorded as the onset of loss of righting reflex (LRR). […] Sluggish or incomplete righting twice consecutively within a 30 second interval qualifies as a loss of righting reflex. After onset of LRR, animals were assessed every 5 minutes in the same manner. Recovery of righting reflex is defined as the ability of a rat to right itself completely within 20 seconds of being placed in dorsal recumbency. The duration of LRR is defined as the time interval between LRR and the return of righting reflex.

GABA receptor α4β3δ = molecular target: T2, GABA receptor α4β3δ (Homo sapiens, UniProt P28472+P48169); test: Patch clamp electrophysiology, manual patch in CHO cells; format: cell-based; conditions: 10 μM test article, GABA EC20 = 2 μM, read-out: GABA (α4β3δ) Manual patch in CHO, % efficacy at 10 μM
T2 construct: expressed in transfected cells; host or cells: CHO cells, transiently transfected
T2 sequence (P48169 36-554): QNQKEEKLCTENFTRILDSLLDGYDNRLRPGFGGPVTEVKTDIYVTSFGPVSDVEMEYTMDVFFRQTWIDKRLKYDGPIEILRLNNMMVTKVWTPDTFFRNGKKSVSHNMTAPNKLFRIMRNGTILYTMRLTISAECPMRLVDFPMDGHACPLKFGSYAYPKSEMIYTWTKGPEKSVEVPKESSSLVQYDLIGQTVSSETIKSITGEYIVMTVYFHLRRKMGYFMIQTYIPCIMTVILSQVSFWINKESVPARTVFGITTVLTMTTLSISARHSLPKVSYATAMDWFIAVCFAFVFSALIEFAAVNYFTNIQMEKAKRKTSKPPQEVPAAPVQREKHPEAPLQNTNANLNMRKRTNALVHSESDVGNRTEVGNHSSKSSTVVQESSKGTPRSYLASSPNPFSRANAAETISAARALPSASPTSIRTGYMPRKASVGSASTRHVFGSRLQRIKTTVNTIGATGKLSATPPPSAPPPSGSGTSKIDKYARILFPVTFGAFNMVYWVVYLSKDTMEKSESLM
T2 sequence (P28472 26-473): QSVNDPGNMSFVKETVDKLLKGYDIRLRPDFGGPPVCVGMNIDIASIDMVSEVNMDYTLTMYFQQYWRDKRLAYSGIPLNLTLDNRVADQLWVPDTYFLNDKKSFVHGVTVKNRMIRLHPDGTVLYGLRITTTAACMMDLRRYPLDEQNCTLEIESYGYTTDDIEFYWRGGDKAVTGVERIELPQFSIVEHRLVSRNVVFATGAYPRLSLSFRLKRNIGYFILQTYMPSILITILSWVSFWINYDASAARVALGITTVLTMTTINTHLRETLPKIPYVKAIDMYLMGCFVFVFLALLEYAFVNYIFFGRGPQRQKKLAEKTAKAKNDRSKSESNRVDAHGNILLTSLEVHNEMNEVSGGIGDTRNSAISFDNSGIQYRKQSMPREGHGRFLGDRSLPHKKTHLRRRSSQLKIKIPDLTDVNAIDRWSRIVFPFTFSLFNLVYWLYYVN
T2 sequence (O14764 25-452 partner): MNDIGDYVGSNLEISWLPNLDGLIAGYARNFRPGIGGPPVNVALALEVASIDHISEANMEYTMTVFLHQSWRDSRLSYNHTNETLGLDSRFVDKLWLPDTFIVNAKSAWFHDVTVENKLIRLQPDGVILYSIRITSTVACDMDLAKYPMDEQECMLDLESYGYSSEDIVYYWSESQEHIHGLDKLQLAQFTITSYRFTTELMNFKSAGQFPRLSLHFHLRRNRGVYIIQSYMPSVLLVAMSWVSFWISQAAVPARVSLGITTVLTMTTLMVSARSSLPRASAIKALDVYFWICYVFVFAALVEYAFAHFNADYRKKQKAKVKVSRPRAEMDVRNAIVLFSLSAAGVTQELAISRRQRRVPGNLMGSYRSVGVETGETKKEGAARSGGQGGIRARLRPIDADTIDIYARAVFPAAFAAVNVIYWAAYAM

Row | Compound | Duration of Lateral Recumbence (min) (male beagle dogs) | Emax at 10 µM (GABA receptor α1β2γ2) [%] | pIC50 [1] | Duration of LRR (min) (male Sprague Dawley rats) | Emax at 10 µM (GABA receptor α4β3δ) [%]
1 | CO[C@H]1C[C@@]2(C)[C@@H](CC[C@H]3[C@@H]4CC[C@H](C#N)[C@@]4(C)CC(=O)[C@@H]32)C[C@@H]1O [Compound 3] | A (“A” indicates the duration to be >20 minutes) | 100 to 500 | < 6.30 | A (“A” indicates the duration of LRR to be <10 min) | 100 to 500
2 | CO[C@H]1C[C@]2(C)[C@@H](C#N)CC[C@H]2[C@@H]2CC[C@H]3C[C@H](O)CC[C@]3(C)[C@H]21 [Compound 31] | A (“A” indicates the duration to be >20 minutes) | > 500 | 7.30 to 8.00 | B (“B” indicates the duration of LRR to be 10-20 minutes) | 100 to 500
3 | CCCO[C@H]1C[C@@]2(C)[C@@H](CC[C@@H]3[C@@H]2CC[C@]2(C)[C@@H](C#N)CC[C@@H]32)C[C@@H]1O [Compound 16] |  | > 500 | > 8.00 | C (“C” indicates the duration of LRR to be >20 minutes) | 100 to 500
4 | CCO[C@H]1C[C@@]2(C)[C@@H](CC[C@H]3[C@@H]4CC[C@H](C#N)[C@@]4(C)CC(=O)[C@@H]32)C[C@@H]1O [Compound 19] | A (“A” indicates the duration to be >20 minutes) | > 500 | 7.00 to 7.30 | B (“B” indicates the duration of LRR to be 10-20 minutes) | 
